In patent US8518945B2, “Pyrrolopyrazine kinase inhibitors” (Hoffmann-La Roche Inc., priority 2010, dated 2013):

Biological target: T1, h-jak3(810-1124) (JAK3: Recombinant human kinase domain) (Homo sapiens, UniProt P52333)
T1 construct: jak3(810- 1124)-sf9-c; made in house; host or cells: Sf9
Assay: Determination of IC50 of Janus Kinase (JAK) inhibition: JAK3 radioactive end-point 33P-ATP kinase assay
Assay type: biochemical
Conditions: no additive; ATP 1.5 uM, peptide 50 uM, 20 minutes, room temperature; read-out: Ic50 h-jak3(810-1124)-sf9-c: no additive

T1 sequence (P52333 810-1124): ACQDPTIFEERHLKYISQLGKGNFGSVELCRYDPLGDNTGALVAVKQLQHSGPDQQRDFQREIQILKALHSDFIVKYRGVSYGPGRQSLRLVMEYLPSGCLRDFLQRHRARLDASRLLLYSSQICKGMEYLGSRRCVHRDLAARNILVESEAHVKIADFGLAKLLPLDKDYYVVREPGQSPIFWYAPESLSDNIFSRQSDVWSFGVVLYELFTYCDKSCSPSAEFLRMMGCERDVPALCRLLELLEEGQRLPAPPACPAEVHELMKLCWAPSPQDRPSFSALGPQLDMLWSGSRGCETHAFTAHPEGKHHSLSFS

Row | Structure (SMILES) | IC50
1 | CC(C)(C)[C@@H](NC(=O)c1c[nH]c2ncc(C3CC3)nc12)C(=O)N1CC[C@H](C#N)C1 [Example I-30, 2-Cyclopropyl-5H-pyrrolo[2,3-b]pyrazine-7-carboxylic acid [(R)-1-((S)-3-cyano-pyrrolidine-1-carbonyl)-2,2-dimethyl-propyl]-amide] | 1240 pM
2 | CC(C)(C)[C@@H](NC(=O)c1c[nH]c2ncc(C3CC3)nc12)C(=O)N1CC[C@@H](C#N)C1 [Example I-31, 2-Cyclopropyl-5H-pyrrolo[2,3-b]pyrazine-7-carboxylic acid [(R)-1-((R)-3-cyano-pyrrolidine-1-carbonyl)-2,2-dimethyl-propyl]-amide] | 800 pM
3 | CC(C)(C)[C@@H](NC(=O)c1c[nH]c2ncc(C3CC3)nc12)C(=O)N1CCCCC1 [Example I-32, 2-Cyclopropyl-5H-pyrrolo[2,3-b]pyrazine-7-carboxylic acid [(R)-2,2-dimethyl-1-(piperidine-1-carbonyl)-propyl]-amide] | 980 pM
4 | CC(C)(C)[C@@H](NC(=O)c1c[nH]c2ncc(C3CC3)nc12)C(=O)N1CCC(C#N)CC1 [Example I-35, 2-Cyclopropyl-5H-pyrrolo[2,3-b]pyrazine-7-carboxylic acid [(R)-1-(4-cyano-piperidine-1-carbonyl)-2,2-dimethyl-propyl]-amide] | 680 pM
5 | CCn1cc(-c2cnc3[nH]cc(C(=O)N[C@@H](C(=O)N4CCC(F)(C#N)C4)C(C)(C)C)c3n2)cn1 (stereo partly drawn) [Example I-36, 2-(1-Ethyl-1H-pyrazol-4-yl)-5H-pyrrolo[2,3-b]pyrazine-7-carboxylic acid [(R)-1-(3-cyano-3-fluoro-pyrrolidine-1-carbonyl)-2,2-dimethyl-propyl]-amide] | ≤ 320 pM
6 | O=C(N[C@@H](C(=O)N1CCCC1)C1CCCCC1)c1c[nH]c2ncc(C3CC3)nc12 [Example I-37, 2-Cyclopropyl-5H-pyrrolo[2,3-b]pyrazine-7-carboxylic acid ((R)-1-cyclohexyl-2-oxo-2-pyrrolidin-1-yl-ethyl)-amide] | 1800 pM
7 | CCn1cc(-c2cnc3[nH]cc(C(=O)N[C@@H](C(=O)N4CCC(F)(C5=NCCN5)C4)C(C)(C)C)c3n2)cn1 (stereo partly drawn) [Example I-38, 2-(1-Ethyl-1H-pyrazol-4-yl)-5H-pyrrolo[2,3-b]pyrazine-7-carboxylic acid {(R)-1-[3-(4,5-dihydro-1H-imidazol-2-yl)-3-fluoro-pyrrolidine-1-carbonyl]-2,2-dimethyl-propyl}-amide] | 2790 pM
8 | N#CC1CCN(C(=O)[C@H](NC(=O)c2c[nH]c3ncc(C4CC4)nc23)C2CCCC2)CC1 [Example I-45, 2-Cyclopropyl-5H-pyrrolo[2,3-b]pyrazine-7-carboxylic acid [(R)-2-(4-cyano-piperidin-1-yl)-1-cyclopentyl-2-oxo-ethyl]-amide] | 700 pM
9 | N#CC1CCN(C(=O)[C@@H](NC(=O)c2c[nH]c3ncc(C4CC4)nc23)C2(C(F)(F)F)CC2)CC1 [Example I-46, 2-Cyclopropyl-5H-pyrrolo[2,3-b]pyrazine-7-carboxylic acid [(S)-2-(4-cyano-piperidin-1-yl)-2-oxo-1-(1-trifluoromethyl-cyclopropyl)-ethyl]-amide] | 4290 pM
10 | N#CC1CCN(C(=O)[C@H](NC(=O)c2c[nH]c3ncc(C4CC4)nc23)C2(C(F)(F)F)CC2)CC1 [Example I-47, 2-Cyclopropyl-5H-pyrrolo[2,3-b]pyrazine-7-carboxylic acid [(R)-2-(4-cyano-piperidin-1-yl)-2-oxo-1-(1-trifluoromethyl-cyclopropyl)-ethyl]-amide] | 1040 pM
11 | N#CC1CCN(C(=O)[C@@H](Cc2ccccc2)NC(=O)c2c[nH]c3ncc(C4CC4)nc23)CC1 [Example I-48, 2-Cyclopropyl-5H-pyrrolo[2,3-b]pyrazine-7-carboxylic acid [(R)-1-benzyl-2-(4-cyano-piperidin-1-yl)-2-oxo-ethyl]-amide] | 600 pM
12 | CC(C)(C)C[C@@H](NC(=O)c1c[nH]c2ncc(C3CC3)nc12)C(=O)N1CCC(C#N)CC1 [Example I-49, 2-Cyclopropyl-5H-pyrrolo[2,3-b]pyrazine-7-carboxylic acid [(R)-1-(4-cyano-piperidine-1-carbonyl)-3,3-dimethyl-butyl]-amide] | 1010 pM
13 | CC(C)(C)[C@@H](NC(=O)c1c[nH]c2ncc(-c3cc(C(F)(F)F)cc(C(F)(F)F)c3)nc12)C(=O)N1CCC(C#N)CC1 [Example I-50, 2-(3,5-Bis-trifluoromethyl-phenyl)-5H-pyrrolo[2,3-b]pyrazine-7-carboxylic acid [(R)-1-(4-cyano-piperidine-1-carbonyl)-2,2-dimethyl-propyl]-amide] | 400 pM
14 | CC(C)(C)[C@@H](NC(=O)c1c[nH]c2ncc(-c3cccc(N4CCCC4)c3)nc12)C(=O)N1CCC(C#N)CC1 [Example I-51, 2-(3-Pyrrolidin-1-yl-phenyl)-5H-pyrrolo[2,3-b]pyrazine-7-carboxylic acid [(R)-1-(4-cyano-piperidine-1-carbonyl)-2,2-dimethyl-propyl]-amide] | 111000 pM
15 | CC(C)(C)[C@@H](NC(=O)c1c[nH]c2ncc(C3CC3)nc12)C(=O)N1CCC(F)(F)CC1 [Example I-52, 2-Cyclopropyl-5H-pyrrolo[2,3-b]pyrazine-7-carboxylic acid [(R)-1-(4,4-difluoro-piperidine-1-carbonyl)-2,2-dimethyl-propyl]-amide] | 440000 pM
16 | Cn1cc(-c2cnc3[nH]cc(C(=O)N[C@@H](C(=O)N4CC(C#N)C4)C(C)(C)C)c3n2)cn1 [Example I-53, 2-(1-Methyl-1H-pyrazol-4-yl)-5H-pyrrolo[2,3-b]pyrazine-7-carboxylic acid [(R)-1-(3-cyano-azetidine-1-carbonyl)-2,2-dimethyl-propyl]-amide] | 279000 pM
17 | CC(C)(C)[C@@H](NC(=O)c1c[nH]c2ncc(-c3cn[nH]c3)nc12)C(=O)N1CCC(C#N)CC1 [Example I-54, 2-(1H-Pyrazol-4-yl)-5H-pyrrolo[2,3-b]pyrazine-7-carboxylic acid [(R)-1-(4-cyano-piperidine-1-carbonyl)-2,2-dimethyl-propyl]-amide] | 14900 pM
18 | Cn1cc(-c2cnc3[nH]cc(C(=O)N[C@@H](C(=O)N4CCC(C#N)CC4)C(C)(C)C)c3n2)cn1 [Example I-55, 2-(1-Methyl-1H-pyrazol-4-yl)-5H-pyrrolo[2,3-b]pyrazine-7-carboxylic acid [(R)-1-(4-cyano-piperidine-1-carbonyl)-2,2-dimethyl-propyl]-amide] | 1520 pM
19 | CCn1cc(-c2cnc3[nH]cc(C(=O)N[C@@H](C(=O)N4CCC(C#N)CC4)C(C)(C)C)c3n2)cn1 [Example I-56, 2-(1-Ethyl-1H-pyrazol-4-yl)-5H-pyrrolo[2,3-b]pyrazine-7-carboxylic acid [(R)-1-(4-cyano-piperidine-1-carbonyl)-2,2-dimethyl-propyl]-amide] | 770 pM
20 | CC(=O)N1CCN(C(=O)[C@H](NC(=O)c2c[nH]c3ncc(C4CC4)nc23)C(C)(C)C)CC1 [Example I-57, 2-Cyclopropyl-5H-pyrrolo[2,3-b]pyrazine-7-carboxylic acid [(R)-1-(4-acetyl-piperazine-1-carbonyl)-2,2-dimethyl-propyl]-amide] | ≤ 320 pM
21 | CC(C)(C)[C@@H](NC(=O)c1c[nH]c2ncc(C3CC3)nc12)C(=O)N1CCC(C(F)(F)F)CC1 [Example I-58, 2-Cyclopropyl-5H-pyrrolo[2,3-b]pyrazine-7-carboxylic acid [(R)-2,2-dimethyl-1-(4-trifluoromethyl-piperidine-1-carbonyl)-propyl]-amide] | 490 pM
22 | Cn1cc(-c2cnc3[nH]cc(C(=O)N[C@@H](C(=O)N4CC[C@@H](C#N)C4)C(C)(C)C)c3n2)cn1 [Example I-60, 2-(1-Methyl-1H-pyrazol-4-yl)-5H-pyrrolo[2,3-b]pyrazine-7-carboxylic acid [(R)-1-((R)-3-cyano-pyrrolidine-1-carbonyl)-2,2-dimethyl-propyl]-amide] | 790 pM
23 | N#CC1CCN(C(=O)[C@H](NC(=O)c2c[nH]c3ncc(C4CC4)nc23)C2CC2)CC1 [Example I-61, 2-Cyclopropyl-5H-pyrrolo[2,3-b]pyrazine-7-carboxylic acid [(R)-2-(4-cyano-piperidin-1-yl)-1-cyclopropyl-2-oxo-ethyl]-amide] | 420 pM
24 | COc1cc(-c2cnc3[nH]cc(C(=O)N[C@@H](C(=O)N4CCC(C#N)CC4)C(C)(C)C)c3n2)cc(OC)c1OC [Example I-64, 2-(3,4,5-Trimethoxy-phenyl)-5H-pyrrolo[2,3-b]pyrazine-7-carboxylic acid [(R)-1-(4-cyano-piperidine-1-carbonyl)-2,2-dimethyl-propyl]-amide] | 94900 pM
25 | CC(C)(C)[C@@H](NC(=O)c1c[nH]c2ncc(C3CC3)nc12)C(=O)N1CCC(O)(c2ccccc2)CC1 [Example I-65, 2-Cyclopropyl-5H-pyrrolo[2,3-b]pyrazine-7-carboxylic acid [(R)-1-(4-hydroxy-4-phenyl-piperidine-1-carbonyl)-2,2-dimethyl-propyl]-amide] | 870 pM
26 | N#CC1CN(C(=O)[C@H](NC(=O)c2c[nH]c3ncc(C4CC4)nc23)C2CC2)C1 [Example I-68, 2-Cyclopropyl-5H-pyrrolo[2,3-b]pyrazine-7-carboxylic acid [(R)-2-(3-cyano-azetidin-1-yl)-1-cyclopropyl-2-oxo-ethyl]-amide] | 580 pM
27 | CC(C)C[C@@H](NC(=O)c1c[nH]c2ncc(-c3cnn(C)c3)nc12)C(=O)N1CC(C#N)C1 [Example I-69, 2-(1-Methyl-1H-pyrazol-4-yl)-5H-pyrrolo[2,3-b]pyrazine-7-carboxylic acid [(R)-1-(3-cyano-azetidine-1-carbonyl)-3-methyl-butyl]-amide] | ≤ 320 pM
28 | CCn1cc(-c2cnc3[nH]cc(C(=O)N[C@@H](C(=O)N4CCC(C#N)CC4)C4CC4)c3n2)cn1 [Example I-71, 2-(1-Ethyl-1H-pyrazol-4-yl)-5H-pyrrolo[2,3-b]pyrazine-7-carboxylic acid [(R)-2-(4-cyano-piperidin-1-yl)-1-cyclopropyl-2-oxo-ethyl]-amide] | 3920 pM
